The target in assay [1] is T1, NAD-dependent protein deacylase sirtuin-5, mitochondrial (Homo sapiens, UniProt Q9NXA8). The assay is described as follows: Inhibition of SIRT5 (unknown origin).
Target sequence in this assay (Q9NXA8 whole entry): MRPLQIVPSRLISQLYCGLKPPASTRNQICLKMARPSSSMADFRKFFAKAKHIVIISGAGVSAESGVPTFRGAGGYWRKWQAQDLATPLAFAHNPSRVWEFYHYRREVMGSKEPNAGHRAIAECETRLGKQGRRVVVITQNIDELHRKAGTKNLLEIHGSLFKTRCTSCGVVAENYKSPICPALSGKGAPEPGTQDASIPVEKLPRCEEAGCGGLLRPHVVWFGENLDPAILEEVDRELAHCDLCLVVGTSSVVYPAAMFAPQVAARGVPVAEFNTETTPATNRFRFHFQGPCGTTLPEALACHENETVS
The target of assay [2] is T1, NAD-dependent protein deacylase sirtuin-5, mitochondrial. Nature of the assay: Inhibition of recombinant human SIRT5 at 50 uM using flour de lys succinyl as substrate in presence of NAD+ by fluorometric assay relative to control.
Target sequence in this assay (Q9NXA8 37-310 limits assumed): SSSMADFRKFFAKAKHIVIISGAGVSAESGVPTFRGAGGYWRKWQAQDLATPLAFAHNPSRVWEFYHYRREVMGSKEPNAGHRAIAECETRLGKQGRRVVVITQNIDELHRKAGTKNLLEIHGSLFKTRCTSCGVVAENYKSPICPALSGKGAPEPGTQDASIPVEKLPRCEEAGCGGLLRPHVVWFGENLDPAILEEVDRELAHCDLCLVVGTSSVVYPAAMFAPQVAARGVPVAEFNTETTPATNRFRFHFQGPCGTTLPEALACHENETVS
The target in assay [3] is T2, NAD-dependent protein deacetylase sirtuin-2 (Homo sapiens) (UniProt Q8IXJ6).
T2 sequence (whole entry): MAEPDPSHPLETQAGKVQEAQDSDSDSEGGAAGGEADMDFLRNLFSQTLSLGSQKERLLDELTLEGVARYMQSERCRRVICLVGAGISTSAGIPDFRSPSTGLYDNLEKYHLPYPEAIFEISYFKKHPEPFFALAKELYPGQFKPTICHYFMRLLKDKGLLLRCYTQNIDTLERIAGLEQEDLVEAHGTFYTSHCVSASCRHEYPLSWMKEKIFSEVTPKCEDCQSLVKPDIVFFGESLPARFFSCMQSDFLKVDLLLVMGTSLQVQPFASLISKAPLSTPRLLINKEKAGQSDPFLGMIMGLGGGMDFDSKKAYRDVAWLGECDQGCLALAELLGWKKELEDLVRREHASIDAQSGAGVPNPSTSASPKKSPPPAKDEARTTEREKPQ
The assay is described as follows: Inhibition of recombinant human SIRT2 (25 to 389 residues) expressed in Escherichia coli BL21(DE3) at 50 uM using ZMAL as substrate incubated for 4 hrs in presence of NAD+ followed by incubation with trypsin for 20 mins by trypsin-coupled assay based homogenous fluorescence analysis relative to control. As to conditions: time 260.0 min.

Assay [4] addresses T1, NAD-dependent protein deacylase sirtuin-5, mitochondrial. Nature of the assay: Competitive inhibition of recombinant human SIRT5 assessed as substrate conversion at 50 uM using ZKsA as substrate in presence of increasing concentration of NAD+ by trypsin-coupled assay.
Target sequence in this assay (Q9NXA8 37-310 limits assumed): as the sequence (Q9NXA8 37-310 limits assumed) above
Assay [5] concerns the target T3, NAD-dependent protein deacetylase sirtuin-1 (Homo sapiens) (UniProt Q96EB6).
T3 sequence (whole entry): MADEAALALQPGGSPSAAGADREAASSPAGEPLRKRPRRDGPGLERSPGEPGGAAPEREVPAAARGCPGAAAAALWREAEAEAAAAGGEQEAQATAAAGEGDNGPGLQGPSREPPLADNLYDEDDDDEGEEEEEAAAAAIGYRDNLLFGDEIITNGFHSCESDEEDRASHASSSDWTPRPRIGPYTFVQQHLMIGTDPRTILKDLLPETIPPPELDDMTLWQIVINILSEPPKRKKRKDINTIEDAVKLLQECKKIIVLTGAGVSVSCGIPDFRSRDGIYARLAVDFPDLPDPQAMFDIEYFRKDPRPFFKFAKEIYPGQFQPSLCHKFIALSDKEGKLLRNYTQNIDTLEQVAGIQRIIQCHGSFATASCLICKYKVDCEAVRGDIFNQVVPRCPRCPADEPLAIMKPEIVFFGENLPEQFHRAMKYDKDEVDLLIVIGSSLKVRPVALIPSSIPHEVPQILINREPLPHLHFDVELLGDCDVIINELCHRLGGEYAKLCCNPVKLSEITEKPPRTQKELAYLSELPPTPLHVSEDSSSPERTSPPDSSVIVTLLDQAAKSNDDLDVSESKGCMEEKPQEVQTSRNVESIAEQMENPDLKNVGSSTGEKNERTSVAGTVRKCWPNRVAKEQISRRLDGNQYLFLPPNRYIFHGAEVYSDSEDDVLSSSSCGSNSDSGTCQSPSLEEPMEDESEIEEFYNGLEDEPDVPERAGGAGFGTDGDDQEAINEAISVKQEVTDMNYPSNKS
Nature of the assay: Inhibition of recombinant human SIRT1 (133 to 747 residues) expressed in Escherichia coli BL21(DE3) at 50 uM using ZMAL as substrate incubated for 4 hrs in presence of NAD+ followed by incubation with trypsin for 20 mins by trypsin-coupled assay based homogenous fluorescence analysis relative to control. The settings on record: time 260.0 min.

Assay [6] concerns the target T1, NAD-dependent protein deacylase sirtuin-5, mitochondrial. Nature of the assay: Competitive inhibition of recombinant human SIRT5 assessed as substrate conversion at 50 uM using increasing concentration of ZKsA as substrate in presence of NAD+ by trypsin-coupled assay.
Target sequence in this assay (Q9NXA8 37-310 limits assumed): as the sequence (Q9NXA8 37-310 limits assumed) above
In assay [7] the target is T4, NAD-dependent protein deacetylase sirtuin-3, mitochondrial (Homo sapiens) (UniProt Q9NTG7).
T4 sequence (whole entry): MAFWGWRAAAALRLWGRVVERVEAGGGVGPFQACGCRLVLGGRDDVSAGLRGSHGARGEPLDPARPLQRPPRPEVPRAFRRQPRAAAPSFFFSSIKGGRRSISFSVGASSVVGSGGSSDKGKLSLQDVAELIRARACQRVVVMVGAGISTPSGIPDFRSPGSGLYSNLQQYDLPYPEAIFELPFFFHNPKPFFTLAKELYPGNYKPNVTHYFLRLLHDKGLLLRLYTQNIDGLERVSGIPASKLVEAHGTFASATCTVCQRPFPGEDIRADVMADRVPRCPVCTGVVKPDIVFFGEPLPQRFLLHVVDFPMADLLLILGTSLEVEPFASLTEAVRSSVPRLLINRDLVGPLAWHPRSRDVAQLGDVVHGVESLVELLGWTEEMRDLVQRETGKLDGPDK
Nature of the assay: Inhibition of recombinant human SIRT3 (101 to 399 residues) expressed in Escherichia coli BL21(DE3) at 100 uM using ZMAL as substrate incubated for 4 hrs in presence of NAD+ followed by incubation with trypsin for 20 mins by trypsin-coupled assay based homogenous fluorescence analysis relative to control. The settings on record: time 260.0 min.

Assay [8] concerns the target T3, NAD-dependent protein deacetylase sirtuin-1 (Homo sapiens). Nature of the assay: Inhibition of recombinant human SIRT1 (133 to 747 residues) expressed in Escherichia coli BL21(DE3) at 100 uM using ZMAL as substrate incubated for 4 hrs in presence of NAD+ followed by incubation with trypsin for 20 mins by trypsin-coupled assay based homogenous fluorescence analysis relative to control. As to conditions: time 260.0 min.

Assay [9] concerns the target T2, NAD-dependent protein deacetylase sirtuin-2 (Homo sapiens). The assay is described as follows: Inhibition of recombinant human SIRT2 (25 to 389 residues) expressed in Escherichia coli BL21(DE3) at 100 uM using ZMAL as substrate incubated for 4 hrs in presence of NAD+ followed by incubation with trypsin for 20 mins by trypsin-coupled assay based homogenous fluorescence analysis relative to control. As to conditions: time 260.0 min.

The target in assay [10] is T1, NAD-dependent protein deacylase sirtuin-5, mitochondrial. The assay is described as follows: Inhibition of recombinant human SIRT5 using flour de lys succinyl as substrate in presence of NAD+ by fluorometric assay.
Target sequence in this assay (Q9NXA8 whole entry): as the sequence (Q9NXA8 whole entry) above

Structures are written as SMILES. The source made the active and inactive calls. The rule behind the calls is not given here.

`C[C@]12CC[C@@H]3c4ccc(O)cc4C[C@@H](CCCCCCCCC[S+]([O-])CCCC(F)(F)C(F)(F)F)[C@H]3[C@@H]1CC[C@@H]2O` (some centres not stated) [FULVESTRANT]: inhibition in assay [1] was half-maximal at 2.6 µM (IC50).

Turning to `CC1=C2C(=COC(C)C2C)C(O)=C(C(=O)O)C1=O` (configuration not stated), in assay [1], the IC50 (commonly the point on the concentration scale where inhibition reaches its midpoint) amounted to 90 µM.

`C=C1c2cccc(O)c2C(=O)C2=C(O)[C@]3(O)C(=O)C(C(N)=O)=C(O)[C@@H](N(C)C)[C@@H]3[C@@H](O)[C@H]12` [METHACYCLINE]: the IC50 in assay [1] is 3.6 µM.

Take `CCCNC(=O)c1ccc(/N=N/c2ccc(O)c(C(=O)O)c2)cc1`: the inhibition (as a rule, the relative decrease from the control value, in per cent) in assay [2] was found to be 31%.

`O=C(O)CCNC(=O)c1ccc(/N=N/c2ccc(O)cc2)cc1`: the inhibition is 26% in [3], 73% in [2] and below 10% in assay [5]. In addition, the inhibition result in [4] and in [6] was “inactive” each time.

On to `O=C(O)CCNCc1ccc(/N=N/c2ccc(O)c(C(=O)O)c2)cc1`, for which the inhibition in assay [3] is 19%; in assay [2], 27%; in assay [5] it was below 10%. For the same compound, the inhibition entry in [4] and in [6] was “inactive” throughout.

Turning to `O=C(O)CCNC(=O)c1ccc(/N=N/c2cccc(C(=O)O)c2)cc1`, the inhibition result in [7] and in assay [8] was “inactive” each time. Further, the inhibition is 21% in assay [3], 63% in assay [2], below 25% in assay [9] and below 10% in assay [5].

`O=C(O)CCCC(=O)c1ccc(/N=N/c2ccc(O)c(C(=O)O)c2)cc1`: in assay [2], the inhibition worked out at 54%.

As for `NC(=O)c1ccc(/N=N/c2ccc(O)c(C(=O)O)c2)cc1`, the inhibition in assay [2] turned out to be 32%.

As to `NC(=O)c1cccnc1`, the inhibition was determined as 65% in assay [3] and 21% in assay [5].

In the case of `O=C(O)CCNC(=O)c1ccc(/N=N/c2ccc(O)c(C(=O)O)c2)cc1` [BALSALAZIDE], the IC50 came to 5.3 µM in [10] and 3.9 µM in [1]. Moreover, the inhibition in [3] was 11%; in [2], 83%; in [5], below 10%. Also, the inhibition entry in assay [4] and in assay [6] was “inactive” in each case.

In turn, `CC(C)(Sc1cc(C(C)(C)C)c(O)c(C(C)(C)C)c1)Sc1cc(C(C)(C)C)c(O)c(C(C)(C)C)c1` [PROBUCOL] registered an IC50 in assay [1] of 1.6 µM.

For the compound `O=C(O)CCOCc1ccc(/N=N/c2ccc(O)c(C(=O)O)c2)cc1`, the inhibition in [2] is 33%.

On to `Cc1ccc(C(=O)Nc2ccc(S(=O)(=O)O)c3cc(S(=O)(=O)O)cc(S(=O)(=O)O)c23)cc1NC(=O)c1cccc(NC(=O)Nc2cccc(C(=O)Nc3cc(C(=O)Nc4ccc(S(=O)(=O)O)c5cc(S(=O)(=O)O)cc(S(=O)(=O)O)c45)ccc3C)c2)c1`, for which the results for the inhibition in assay [2] and in assay [5] were 53% and 95%, respectively.

With `O=C(O)CCCCc1ccc(/N=N/c2ccc(O)c(C(=O)O)c2)cc1`, in [2], the inhibition stood at 32%.

In assay [1], `Cc1cc(C(C#N)c2ccc(Cl)cc2)c(Cl)cc1NC(=O)c1cc(I)cc(I)c1O` (configuration not stated) [CLOSANTEL] registered an IC50 of 2.7 µM.

Consider `O=C(O)c1ccc(/N=N/c2ccc(O)c(C(=O)O)c2)cc1`, for which the inhibition in assay [2] stood at 27%.

For the compound `O=C(O)CCNC(=O)c1ccc(/N=N/c2ccccc2)cc1`, the inhibition result in assay [7] and in [8] was “inactive” throughout. For the same compound, the inhibition was 16% in assay [3], 62% in [2], below 25% in assay [9] and below 10% in assay [5].

Consider `O=C(O)CCCC(O)c1ccc(/N=N/c2ccc(O)c(C(=O)O)c2)cc1` (configuration not stated), for which the inhibition in assay [2] amounted to 39%.

For `O=C(O)CCC(=O)Nc1ccc(/N=N/c2ccc(O)c(C(=O)O)c2)cc1`, the inhibition in [2] amounted to 26%.

Take `O=C(O)CNC(=S)Nc1ccc(/N=N/c2ccc(O)c(C(=O)O)c2)cc1`: in assay [2], the inhibition was found to be 24%.

The record behind these values is ChEMBL document CHEMBL4765439, “Identification of the subtype-selective Sirt5 inhibitor balsalazide through systematic SAR analysis and rationalization via theoretical investigations” (Eur J Med Chem, 2020).
